The values below are quoted from earlier work in patent US20230149600A1, “COLLAGEN-BASED DEVICE HAVING ANTIFUNGAL PROPERTIES” (AROA BIOSURGERY LIMITED, priority 2016, published 2023).

In one data set the test system is C. albicans. The conditions noted are these: 20 strains of C. albicans.
The next data set deals with Candida albicans. The conditions noted are these: 5% (50 mg/mL) doxycycline solution.
The test system of a further data set is C. albicans biofilms. Conditions: doxycycline concentrations >0.512 mg/mL; not correlated with fungicidal efficacy.
The test system of data set [1] is fungal spores of the genera Aspergillus, Penicillium and Curvularia. The conditions noted are these: called "moderate" activity.

Turning to Doxycycline, the MIC range in the data set with C. albicans was 640 to 1280 µg/mL. For the same substance, the “antifungal effect relative to other solutions” value with Candida albicans is reported as “more active than a 17% EDTA solution but less active than a 2.5% NaOCl solution or a 0.2% chlorhexidine gluconate solution”. The “reduction in metabolic activity of C. albicans biofilms” value in the data set with C. albicans biofilms is reported as ≥ 80%. Also, the “inhibition of fungal spore germination” value in data set [1] is recorded as 50-70%.
